Reference: US7041819B2, “Halogenated calixpyrroles and uses thereof” (Board of Regents, The University of Texas System, priority 1996, dated 2006)
Each block holds one molecule with its values, some of them ahead of it.

Assays:
[1] = 1H NMR titration in CD2Cl2; format: binding; conditions: for Stability Constants, Hydrogen sulfate: Table 4, 0.1 M salt added to 10 mM receptor
[2] = NMR titration with neutral substrates in benzene-d6; format: binding; conditions: benzene-d6 at 298 K; 1 at ca. 4 × 10^−3 M
Description: Substrate Binding in Solution. The binding of neutral molecules to calix[4]pyrrole in the solid state prompted the present inventors to quantify the binding affinities of calix[4]pyrrole to a number of hydrogenbinding neutral molecules. Table 6 illustrates the varying degrees of affinity to which calix[4]pyrrole binds to various hydrogen binding compounds.

[3] = 1H NMR titration in CD2Cl2; format: binding; conditions: tetrabutylammonium salt 0.1M added to 10 mM receptor
[4] = 1H NMR titration in CD2Cl2; format: binding; conditions: tetrabutylammonium salt 0.1M added to 10 mM receptor; remark: listed apart in the source
[5] = 1H NMR titration in CD2Cl2; format: binding; conditions: for Stability Constant, Dihydrogen phosphate: tetrabutylammonium salt 0.1M added to 10 mM receptor; for Stability Constant, Dibiphosphate: tetrabutylammonium salt 0.03 M added to 3 mM receptor; for Stability Constants, Dihydrogen phosphate: Table 4, 0.1 M salt added to 10 mM receptor, value of 28 estimated
[6] = 1H NMR titration in CD2Cl2; conditions: for Stability Constant, Chloride / Stability Constants, Chloride: CD2Cl2; for Stability Constants, Chloride: Table 4, tetrabutylammonium salt 0.1 M added to 10 mM receptor
[7] = 1H NMR titration in CD2Cl2; conditions: for Stability Constant, Fluoride: CD2Cl2
[8] = Anion binding affinity compared with parent calix[4]pyrrole; conditions: 13 and 29 vs compound 2; 14 and 28 vs compound 1
Description: These types of compounds are useful as HPLC column media since low affinity constants and fast complexation-decomplexation rates generally lead to efficient separation of substrates (see Example 10).
Receptors with an increased anion binding ability such as 14 are useful as anion sequestering agents (e.g., in removal of phosphate and nitrate pollutants from aqueous environments) (see Example 12) or as synthons in reactions to produce further modified calix[4]pyrroles. The present inventors envision this system will be useful as a precursor to a calix[m]pyridino[n]pyrrole or a calix[m]pyridine.
The attachment of electron-donating substituents (such as methoxy) to the β-position (carbon or C-rim of the calixpyrrole) decreases the stability constants of compound 13 relative to compound 2. However attachment of electron-withdrawing substituents (such as bromine) to the carbon-rim has increased the stability constants of compound 14 relative to compound 1.
This increased binding affinity towards anions was not observed for the Substituted amide substituted mesooctamethylcalix[4]pyrrole 28 when compared to the compound 1. A possible reason is that the carboxy ‘tail” is not long enough to swing around and contribute to the binding of the anion.

[9] = Stability under acidic conditions; format: physicochemical; conditions: for stability under conditions of acid catalysis at higher temperature: 64° C., within 24 h; for stability under conditions of acid catalysis identical to those of preparation: purified samples, 24 hours, ambient temperature
Procedure: An advantage of 44 is that in contrast to its simple all-hydrogen analogue 43 it is stable upon exposure to acidic aqueous environments (down to pH 3 or 4 for >24 hours). This makes this system particularly useful for anion recognition, binding, sensing, transport, and extraction applications described in Examples 4, 8, 10, 11, 12, and 15.
A further advantage of the calix[n]pyrroles is that they are stable at a wide range of temperatures, especially at neutral or basic conditions. Under acidic conditions and extreme high or low temperatures, the meso linkage may degrade. A particular attribute of the fluorinated calix[n]pyrroles 44, 46, and 48 is that they are very stable under acidic conditions.
This latter finding is consistent with compounds 46 and 48 being kinetically stable at ambient temperature but not at higher temperatures.

[10] = 1H and 19F NMR titration in acetonitrile-d3 (0.5% v/v D2O); format: binding; conditions: wet acetonitrile
Description: ^1H and ^19F NMR Titrations. The receptor 44, as a 0.014 M acetonitrile-d3 (0.5% v/v D2O) solution, was titrated by addition of concentrated acetonitrile-d3 (0.5% v/v D2O) solutions of the anions in question (in the form of their tetrabutylammonium salts). In order to account for dilution effects, these anion solutions also contained receptor 44 at its initial concentration. The data were fit to a 1:1 binding profile according to the method of Wilcox (in Frontiers in Supramolecular Organic Chemistry and Photochemistry; Schneider, H.-J., Dürr, H., Eds.; VCH: Weinheim, 1991) using changes in both the NH and β-F pyrrolic resonances in the ^1H and ^19F NMR spectra, respectively, that were assigned to the portion of the total receptor concentration that was considered to be monomeric. Specifically, the change in the position of the peaks initially at 7.24 ppm (^1H NMR) and −177.03 ppm (^19F NMR) were followed. Integration of the two pyrrolic NH resonances (corresponding to calix[4]pyrroles that are “free” and bound to the next receptor molecule) made it possible to estimate the relative concentration of the monomeric fraction in the acetonitrile-d3 (0.5% v/v D2O) solutions being subject to analysis. This estimated monomeric receptor concentration was used to calculate the affinity constants. […] Estimated errors were <20%.
The presence of two different receptor forms in solution precluded the use of Job plots to analyze binding stoichiometries. […] This increased selectivity is summarized in terms of the ratio of the binding constants, R44/43. (Table 9). Separate from the issue of binding to the monomeric form, but complicating the analyses somewhat was the finding that the addition of phosphate and fluoride to wet acetonitrile solutions of 44 led to deaggregation.
^1H and ^19F NMR spectroscopic titrations. Receptor 46, as a 0.014 M acetonitrile-d3 (0.5% v/v D2O) solution, was titrated by addition of concentrated acetonitrile-d3 (0.5% v/v D2O) solutions of the anions in question (in the form of their tetrabutylammonium salts). In order to account for dilution effects, these anion solutions also contained receptor 46 at its initial concentration. The data were fit to a 1:1 binding profile according to the method of Wilcox (Wilcox, C. S. in Frontiers in Supramolecular Organic Chemistry and Photochemistry; Schneider, H.-J., Dürr, H., Eds.; VCH: Weinheim, 1991) using changes in both the NH and β-F pyrrolic resonances in the ^1H and ^19F NMR spectra, respectively.
The binding properties of 46 and 48 were studied.

[11] = Binding constant in wet acetonitrile
Procedure: Binding constants vary with the solvent used for the binding study. Note that the solvent used for the data of Table 2 of Example 10 was dichloromethane whereas the solvent used for the studies herein was acetonitrile. In addition, a binding constant of 12,300 M^−1 was determined for the binding of pyrophosphate to 44 in wet acetonitrile.

[12] = acetonitrile-d3 (0.5% v/v D2O) at 22° C.; Anzenbacher et al. 1999; cited from earlier work
[13] = acetonitrile-d3 (0.5% v/v D2O) at 22° C.; Anzenbacher et al. 1999; cited from earlier work; remark: listed apart in the source
[14] = acetonitrile-d3 (0.5% v/v D2O) at 22° C.; Anzenbacher et al. 1999; cited from earlier work; remark: listed apart in the source
[15] = acetonitrile-d3 (0.5% v/v D2O) at 22° C.; Anzenbacher et al. 1999; cited from earlier work; remark: listed apart in the source
[16] = tetrabutylammonium salt 0.1M added to 10 mM receptor
[17] = tetrabutylammonium fluoride trihydrate 0.1M added to 10 mM receptor
[18] = tetrabutylammonium salt 0.03 M added to 3 mM receptor
[19] = tetrabutylammonium salt 0.03 M added to 3 mM receptor, value of 14 estimated

Stability Constant, Hydrogen sulfate [1, 16]: <10 M⁻¹
Stability Constant, Bromide [3]: 10 (±0.5) M^−1
Stability Constant, Iodide [4]: <10 M⁻¹
Stability Constant, Dihydrogen phosphate [5]: 97 (±3.9) M^−1
Stability Constant, Chloride [6, 16]: 350 (±5.5) M^−1
Stability Constant, Fluoride [7, 17]: 17170 (±900) M^−1
Molecule: CC1(C)c2ccc([nH]2)C(C)(C)c2ccc([nH]2)C(C)(C)c2ccc([nH]2)C(C)(C)c2ccc1[nH]2 [Compound 1, meso-octamethylcalix[4]pyrrole]
Ka, 1,1,3,3tetramethylurea [2]: 2.2 ± 0.1 M^1
Ka, 1,2dimethylimidazole [2]: 5.4 ± 0.3 M^1
Ka, N,N-dimethylacetamide [2]: 9.0 ± 0.9 M^1
Ka, N,N-dimethylformamide [2]: 11.3 ± 0.8 M^1
Ka, N-formylglycine ethyl ester [2]: 13.3 ± 1.0 M^1
Ka, acetone [2]: 2.2 ± 0.2 M^1
Ka, benzyl alcohol [2]: 9.7 ± 0.7 M^1
Ka, dimethyl sulfoxide [2]: 16.2 ± 1.1 M^1
Ka, ethanol [2]: 10.7 ± 0.7 M^1
Ka, isopropyl alcohol [2]: 7.0 ± 0.4 M^1
Ka, methanol [2]: 12.7 ± 1.0 M^1
Ka, secbutanol [2]: 6.2 ± 0.4 M^1

Stability Constant, Dihydrogen phosphate [5]: <10 M⁻¹
Stability Constant, Chloride [6, 16]: 117 (±4.0) M^−1
Stability Constant, Fluoride [7, 17]: 3600 (±395) M^−1
Molecule: c1cc2[nH]c1C1(CCCCC1)c1ccc([nH]1)C1(CCCCC1)c1ccc([nH]1)C1(CCCCC1)c1ccc([nH]1)C21CCCCC1 [Compound 2, meso-Tetraspirocyclohexylcalix[4]pyrrole, reference compound]

Stability Constant, Dibiphosphate [5]: 6.5 (±0.4) × 10^2 M^−1
anion binding affinity relative to parent calix[4]pyrrole [8]: decreased
Stability Constant, Chloride [6, 18]: <10 M⁻¹
Stability Constant, Fluoride [7, 19]: 1.7 (±0.2) × 10^2 M^−1
Molecule: COc1c2[nH]c(c1OC)C1(CCCCC1)c1[nH]c(c(OC)c1OC)C1(CCCCC1)c1[nH]c(c(OC)c1OC)C1(CCCCC1)c1[nH]c(c(OC)c1OC)C21CCCCC1 [Compound 13, β-Octamethoxy-meso-tetraspirocyclohexylcalix[4]pyrrole]

Stability Constant, Dibiphosphate [5]: <10 M⁻¹
anion binding affinity relative to parent calix[4]pyrrole [8]: increased
Stability Constant, Chloride [6, 18]: 4.3 (±0.6) × 10^3 M^−1
Stability Constant, Fluoride [7, 19]: 2.7 (±0.4) × 10^4b M^−1
Molecule: CC1(C)c2[nH]c(c(Br)c2Br)C(C)(C)c2[nH]c(c(Br)c2Br)C(C)(C)c2[nH]c(c(Br)c2Br)C(C)(C)c2[nH]c1c(Br)c2Br [Compound 14, β-Octabromo-meso-octamethylcalix[4]pyrrole]

Stability Constants, Hydrogen sulfate [1]: <10 M⁻¹
Stability Constants, Dihydrogen phosphate [5]: 80 (±15)^b M^−1
anion binding affinity relative to parent calix[4]pyrrole [8]: not observed
Stability Constants, Chloride [6]: 405 (±10) M^−1
Molecule: CCCCNC(=O)Cc1cc2[nH]c1C(C)(C)c1ccc([nH]1)C(C)(C)c1ccc([nH]1)C(C)(C)c1ccc([nH]1)C2(C)C [Compound 28, Mono-β-butylamidocalix[4]pyrrole]

Stability Constants, Hydrogen sulfate [1]: <10 M⁻¹
Stability Constants, Dihydrogen phosphate [5]: 62 (±6) M^−1
anion binding affinity relative to parent calix[4]pyrrole [8]: marked increase
Stability Constants, Chloride [6]: 415(±45) M^−1
Molecule: CCCCNC(=O)CCCC1(C)c2ccc([nH]2)C2(CCCCC2)c2ccc([nH]2)C2(CCCCC2)c2ccc([nH]2)C2(CCCCC2)c2ccc1[nH]2 (stereo not drawn) [Compound 29, Mono-meso-butylamidocalix[4]pyrrole]

stability under acidic conditions [9]: very stable
Stability Constant, Chloride [10]: 10700 M⁻¹
Stability Constant, Pyrophosphate [11]: 12300 M⁻¹
Molecule: CC1(C)c2[nH]c(c(F)c2F)C(C)(C)c2[nH]c(c(F)c2F)C(C)(C)c2[nH]c(c(F)c2F)C(C)(C)c2[nH]c1c(F)c2F [Compound 44, Meso-Octamethyl-β-octafluorocalix[4]pyrrole]

stability under acidic conditions [9]: very stable
stability under conditions of acid catalysis at higher temperature [9]: nearly complete conversion to 44
stability under conditions of acid catalysis identical to those of preparation [9]: remained completely intact
Stability Constant, Chloride [10]: 41 000 M^−1
Stability Constant, DMSO [10]: 29 (±3) M^−1
Stability Constant, Pyrophosphate [11]: 25 000 M^−1
Molecule: CC1(C)c2[nH]c(c(F)c2F)C(C)(C)c2[nH]c(c(F)c2F)C(C)(C)c2[nH]c(c(F)c2F)C(C)(C)c2[nH]c(c(F)c2F)C(C)(C)c2[nH]c1c(F)c2F [Compound 46, β-Decafluoro-meso-decamethylcalix[5]pyrrole]

stability under acidic conditions [9]: very stable
stability under conditions of acid catalysis at higher temperature [9]: nearly complete conversion to 44
stability under conditions of acid catalysis identical to those of preparation [9]: remained completely intact
Stability Constant, Chloride [10]: 3 600 M^−1
Stability Constant, Pyrophosphate [11]: 28 000 M^−1
Molecule: CC1(C)c2[nH]c(c(F)c2F)C(C)(C)c2[nH]c(c(F)c2F)C(C)(C)c2[nH]c(c(F)c2F)C(C)(C)c2[nH]c(c(F)c2F)C(C)(C)c2[nH]c(c(F)c2F)C(C)(C)c2[nH]c(c(F)c2F)C(C)(C)c2[nH]c(c(F)c2F)C(C)(C)c2[nH]c1c(F)c2F [Compound 48, β-hexadecafluoro-meso-hexadecamethylcalix[8]pyrrole]

Molecule: meso-octamethylcalix[4]pyrrole [Compound 1]
Affinity constant, H2PO4^− [12]: 1 300 mol^−1
Affinity constant, DMSO-d6 [13]: <5^c mol^−1
Affinity constant, F^− [14]: >10 000 mol^−1
Affinity constant, Cl^− [15]: 5 000 mol^−1

Molecule: meso-tetramethylcalix[4]pyrrole-p-tert-butylcalix[4]arene pseudo dimer [Compound 15]
changes in the NMR spectrum on addition of tetrabutylammonium fluoride ([7]; dichloromethane-d2, 10.0 equiv.): no changes

Molecule: β-diester-meso-octamethylcalix[4]pyrrole [Compound 11]
interaction with chloride anion in solution [6]: interact
interaction with fluoride anion in solution [7]: interact

Molecule: β-monoester-meso-octamethylcalix[4]pyrrole [Compound 10]
Stability Constant, Chloride [6, 18]: 47 (±1) M^−1
Stability Constant, Fluoride [7, 19]: 1.1 (±0.2) × 10^3 M^−1
